Consider 16 molecules from US20250144094A1 (Erasca, Inc., priority 2021, published 2025).

Structures are written as SMILES. A value given as a limit tells only on which side of the number the result lay.

What is called IC50 is the concentration at which inhibition is half-maximal.

The assay deals with Recombinant human ULK1 (1-649) (Homo sapiens (Human), UniProt O75385). The assay is described as follows: ULK1 ADP Glo kinase activity assay, new method (ULKtide peptide substrate). The settings on record: 25° C., 40 minutes, read-out: ULK1 biochemical IC50. The essentials: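 GST-tagged human ULK1 (1-649) from Sf9 cells was reacted with ULKtide peptide and ATP for 40 min at 25 °C across 12-point compound dilutions from 10 μM. ADP formed was quantified by ADP-Glo luminescence; IC50 came from four-parameter fits relative to DMSO controls.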
Sequence of Recombinant human ULK1 (1-649) (O75385 1-649): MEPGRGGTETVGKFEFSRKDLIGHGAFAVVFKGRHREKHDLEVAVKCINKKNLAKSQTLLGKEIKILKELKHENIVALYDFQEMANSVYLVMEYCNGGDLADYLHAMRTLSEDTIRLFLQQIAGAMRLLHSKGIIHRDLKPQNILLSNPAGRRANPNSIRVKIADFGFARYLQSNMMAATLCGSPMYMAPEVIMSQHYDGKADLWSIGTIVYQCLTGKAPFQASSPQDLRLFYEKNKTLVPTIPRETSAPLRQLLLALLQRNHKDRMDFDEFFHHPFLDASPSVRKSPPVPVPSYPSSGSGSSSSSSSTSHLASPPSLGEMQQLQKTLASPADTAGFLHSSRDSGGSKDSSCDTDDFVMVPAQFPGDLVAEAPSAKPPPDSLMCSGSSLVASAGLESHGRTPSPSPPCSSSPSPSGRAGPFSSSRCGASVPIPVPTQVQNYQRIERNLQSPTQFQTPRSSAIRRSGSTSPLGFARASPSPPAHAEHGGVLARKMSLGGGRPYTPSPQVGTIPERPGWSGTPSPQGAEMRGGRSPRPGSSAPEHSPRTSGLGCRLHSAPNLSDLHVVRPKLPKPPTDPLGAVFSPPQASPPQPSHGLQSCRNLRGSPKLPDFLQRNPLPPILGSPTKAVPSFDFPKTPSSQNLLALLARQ

`CC1(CN2CCc3cc(Nc4ncc(C(F)(F)F)c(-c5cc6c(s5)C(=O)N(C5CC5)CCS6(=O)=O)n4)c(C4CC4)cc3C2)COC1` [Example 279, 4-cyclopropyl-7-(2-((7-cyclopropyl-2-((3-methyloxetan-3-yl)methyl)-1,2,3,4-tetrahydroisoquinolin-6-yl)amino)-5-(trifluoromethyl)pyrimidin-4-yl)-3,4-dihydrothieno[2,3-f][1,4]thiazepin-5(2H)-one 1,1-dioxide]: the half-maximal inhibitory concentration (IC50) is at most 5 nM.
As to `O=C1c2sc(-c3nc(Nc4cc5c(cc4C4CC4)CCNC5)ncc3C(F)(F)F)cc2S(=O)(=O)CCN1CC(F)(F)F` [Example 232, 7-(2-((6-cyclopropyl-1,2,3,4-tetrahydroisoquinolin-7-yl)amino)-5-(trifluoromethyl)pyrimidin-4-yl)-4-(2,2,2-trifluoroethyl)-3,4-dihydrothieno[2,3-f][1,4]thiazepin-5(2H)-one 1,1-dioxide], the IC50 was at most 5 nM.
For `O=C1c2sc(-c3nc(Nc4ccc(N5CCN[C@@H](CO)C5)cc4C4CC4)ncc3C(F)(F)F)cc2S(=O)(=O)CCN1C1COC1` [Example 358, (R)-7-(2-((2-cyclopropyl-4-(3-(hydroxymethyl)piperazin-1-yl)phenyl)amino)-5-(trifluoromethyl)pyrimidin-4-yl)-4-(oxetan-3-yl)-3,4-dihydrothieno[2,3-f][1,4]thiazepin-5(2H)-one 1,1-dioxide], the IC50 is at most 5 nM.
Turning to `CCN1CCc2cc(Cl)c(Nc3ncc(C(F)(F)F)c(-c4cc5c(s4)C(=O)N(C)CCS5(=O)=O)n3)cc2C1` [Example 211, 7-(2-((6-chloro-2-ethyl-1,2,3,4-tetrahydroisoquinolin-7-yl)amino)-5-(trifluoromethyl)pyrimidin-4-yl)-4-methyl-3,4-dihydrothieno[2,3-f][1,4]thiazepin-5(2H)-one 1,1-dioxide], the IC50 is 10 to 50 nM.
As to `CCc1cc(N2C[C@@H](C)N(C)[C@@H](C)C2)ccc1Nc1ncc(C(F)(F)F)c(-c2cc3c(s2)C(=O)N(C2CC2)CCS3(=O)=O)n1` [Example 367, 4-cyclopropyl-7-(2-((2-ethyl-4-((3S,5R)-3,4,5-trimethylpiperazin-1-yl)phenyl)amino)-5-(trifluoromethyl)pyrimidin-4-yl)-3,4-dihydrothieno[2,3-f][1,4]thiazepin-5(2H)-one 1,1-dioxide], the IC50 was at most 5 nM.
With `CCN1CCS(=O)(=O)c2cc(-c3nc(Nc4cc5c(cc4Cl)CN(C)CC5)ncc3C(F)(F)F)sc2C1=O` [Example 142, 7-(2-((7-chloro-2-methyl-1,2,3,4-tetrahydroisoquinolin-6-yl)amino)-5-(trifluoromethyl)pyrimidin-4-yl)-4-ethyl-3,4-dihydrothieno[2,3-f][1,4]thiazepin-5(2H)-one 1,1-dioxide], the IC50 was at most 5 nM.
Consider `C[C@H]1CN(c2ccc(Nc3ncc(C(F)(F)F)c(-c4cc5c(s4)C(=O)N(C4CC4)CCS5(=O)=O)n3)c(C3CC3)c2)CCN1C` [Example 332, (S)-4-cyclopropyl-7-(2-((2-cyclopropyl-4-(3,4-dimethylpiperazin-1-yl)phenyl)amino)-5-(trifluoromethyl)pyrimidin-4-yl)-3,4-dihydrothieno[2,3-f][1,4]thiazepin-5(2H)-one 1,1-dioxide], for which the IC50 is at most 5 nM.
With `CC(C)N1CCc2cc(Nc3ncc(C(F)(F)F)c(-c4cc5c(s4)C(=O)N(C4CC4)CCS5(=O)=O)n3)c(C3CC3)cc2C1` [Example 248, 4-cyclopropyl-7-(2-((7-cyclopropyl-2-isopropyl-1,2,3,4-tetrahydroisoquinolin-6-yl)amino)-5-(trifluoromethyl)pyrimidin-4-yl)-3,4-dihydrothieno[2,3-f][1,4]thiazepin-5(2H)-one 1,1-dioxide], the IC50 was at most 5 nM.
In the case of `CCc1cc(N2CCNCC2)ccc1Nc1ncc(C(F)(F)F)c(-c2cc3c(s2)C(=O)N(C)CCS3(=O)=O)n1` [Example 174, 7-(2-((2-ethyl-4-(piperazin-1-yl)phenyl)amino)-5-(trifluoromethyl)pyrimidin-4-yl)-4-methyl-3,4-dihydrothieno[2,3-f][1,4]thiazepin-5(2H)-one 1,1-dioxide], the IC50 was at most 5 nM.
On to `Cc1cc2c(cc1Nc1ncc(C(F)(F)F)c(-c3cc4c(s3)C(=O)N(C)CCS4(=O)=O)n1)CCN(CC1CC1)C2` [Example 205, 7-(2-((2-(cyclopropylmethyl)-7-methyl-1,2,3,4-tetrahydroisoquinolin-6-yl)amino)-5-(trifluoromethyl)pyrimidin-4-yl)-4-methyl-3,4-dihydrothieno[2,3-f][1,4]thiazepin-5(2H)-one 1,1-dioxide], for which the IC50 is at most 5 nM.
As for `O=C1c2sc(-c3nc(Nc4ccc(N5CCNCC5)cc4C4CC4)ncc3C(F)(F)F)cc2S(=O)(=O)CCN1C1CC1` [Example 239, 4-cyclopropyl-7-(2-((2-cyclopropyl-4-(piperazin-1-yl)phenyl)amino)-5-(trifluoromethyl)pyrimidin-4-yl)-3,4-dihydrothieno[2,3-f][1,4]thiazepin-5(2H)-one 1,1-dioxide], the IC50 was at most 5 nM.
On to `O=C1c2sc(-c3nc(Nc4cc5c(cc4Cl)CNCC5)ncc3C(F)(F)F)cc2S(=O)(=O)CCN1C1CC1` [Example 155, 7-(2-((7-chloro-1,2,3,4-tetrahydroisoquinolin-6-yl)amino)-5-(trifluoromethyl)pyrimidin-4-yl)-4-cyclopropyl-3,4-dihydrothieno[2,3-f][1,4]thiazepin-5(2H)-one 1,1-dioxide], for which the IC50 was at most 5 nM.
For `CN1CCS(=O)(=O)c2cc(-c3nc(Nc4cc5c(cc4C4CC4)CCNC5)ncc3C(F)(F)F)sc2C1=O` [Example 231, 7-(2-((6-cyclopropyl-1,2,3,4-tetrahydroisoquinolin-7-yl)amino)-5-(trifluoromethyl)pyrimidin-4-yl)-4-methyl-3,4-dihydrothieno[2,3-f][1,4]thiazepin-5(2H)-one 1,1-dioxide], the IC50 is at most 5 nM.
For `CCN1CCc2cc(Nc3ncc(C(F)(F)F)c(-c4cc5c(s4)C(=O)N(C)CCS5(=O)=O)n3)c(C3CC3)cc2C1` [Example 186, 7-(2-((7-cyclopropyl-2-ethyl-1,2,3,4-tetrahydroisoquinolin-6-yl)amino)-5-(trifluoromethyl)pyrimidin-4-yl)-4-methyl-3,4-dihydrothieno[2,3-f][1,4]thiazepin-5(2H)-one 1,1-dioxide] the value was at most 5 nM.
Take `C[C@@H]1CN(c2ccc(Nc3ncc(C(F)(F)F)c(-c4cc5c(s4)C(=O)N(C4COC4)CCS5(=O)=O)n3)c(C3CC3)n2)CCN1` [Example 375, (R)-7-(2-((2-cyclopropyl-6-(3-methylpiperazin-1-yl)pyridin-3-yl)amino)-5-(trifluoromethyl)pyrimidin-4-yl)-4-(oxetan-3-yl)-3,4-dihydrothieno[2,3-f][1,4]thiazepin-5(2H)-one 1,1-dioxide]: the IC50 is at most 5 nM.
The value for `CCc1cc(N2C[C@H]3CC[C@@H](C2)N3)ccc1Nc1ncc(C(F)(F)F)c(-c2cc3c(s2)C(=O)N(C2COC2)CCS3(=O)=O)n1` [Example 337, 7-(2-((4-((1R,5S)-3,8-diazabicyclo[3.2.1]octan-3-yl)-2-ethylphenyl)amino)-5-(trifluoromethyl)pyrimidin-4-yl)-4-(oxetan-3-yl)-3,4-dihydrothieno[2,3-f][1,4]thiazepin-5(2H)-one 1,1-dioxide] was at most 5 nM.
